# According to patent publication US11779566B2 (priority 2016, dated 2023):
# Tests used:
# [1] = test system: vaccinia virus (VV); settings: in vitro, read-out: 50% effective concentration [EC50], inhibition of virus replication; cited from earlier work
# [2] = test system: cowpox virus (CV); settings: in vitro, read-out: 50% effective concentration [EC50], inhibition of virus replication; cited from earlier work
# [3] = test system: ectromelia virus (ECTV); settings: read-out: 50% effective concentration [EC50], inhibition of virus replication; cited from earlier work
# [4] = test system: monkeypox; settings: in vitro, read-out: 50% effective concentration [EC50], inhibition of virus replication; cited from earlier work
# [5] = test system: camelpox; settings: read-out: 50% effective concentration [EC50], inhibition of virus replication; cited from earlier work
# [6] = test system: variola viruses; settings: in vitro, read-out: 50% effective concentration [EC50], inhibition of virus replication; cited from earlier work
# [7] = test system: VV; settings: lethal infection with VV; treatments delayed up to 72 h post-viral inoculation; cited from earlier work
# [8] = test system: CV; settings: lethal infection with CV; treatments delayed up to 72 h post-viral inoculation; cited from earlier work
# [9] = test system: VV; settings: orally twice a day at 15 or 50 mg/kg of body weight for 5 days; cited from earlier work
# [10] = physchem; settings: aqueous buffer
# [11] = test system: ECTV; settings: mouse, in vivo; cited from earlier work
smiles,measurement,setting,value
"O=C(NN1C(=O)[C@@H]2[C@@H]3C=C[C@@H]([C@H]4C[C@@H]34)[C@@H]2C1=O)c1ccc(C(F)(F)F)cc1 [ST-246, 4-trifluoromethyl-N-(3,3a,4,4a,5,5a,6,6a-octahydro-1,3-dioxo-4,6-ethenocycloprop[f]isoindol-2-(1H)-yl)-benzamide]",EC50,[1],≤ 70 nM
same,EC50,[2],≤ 70 nM
same,EC50,[3],≤ 70 nM
same,EC50,[4],≤ 70 nM
same,EC50,[5],≤ 70 nM
same,EC50,[6],≤ 70 nM
same,preventing or reducing mortality,[7],highly effective in preventing or reducing mortality
same,preventing or reducing mortality,[8],highly effective in preventing or reducing mortality
same,tail lesions,[9],significantly reduced
same,solubility,[10],~2 µg/mL
same,preventing or reducing mortality,[11],highly effective in preventing or reducing mortality
same,toxicity in animal models,[11],nontoxic
